# What was measured:
# [1] = Extraction of aqueous bioproduct solutions with 1-butene in a pressure vessel (distribution coefficient); format: physicochemical; settings: for DC (bioproduct distribution coefficient): 1-butene / aqueous phase, Table 1; for Extract Bioproduct conc. (%) / Raffinate Bioproduct conc. (%): 100 g aqueous solution, 2% initial bioproduct, mixed with 100 g 1-butene; for Extract Bioproduct conc. (%): extract phase; for Raffinate Bioproduct conc. (%): raffinate phase
# Procedure: (§1) 100 g (grams) aqueous solutions of various bioproducts were prepared. Bioproduct initial concentration was 2%. Each of these bioproduct aqueous solutions was extracted in a pressure vessel by mixing with 100 g 1-butene (the olefin). The amount of formed extract and formed raffinate and the concentration (conc.) of the bioproduct in each were determined. Theses concentrations were used to calculate the bioproduct distribution coefficient (DC). Table 2 compares the found distribution coefficients to those of extracting with dimethyl ether (DME).
# [2] = Extraction with dimethyl ether (DME), distribution coefficient for comparison; format: physicochemical; settings: extracting with dimethyl ether
# Procedure: as §1
# [3] = 25° C.; cited from earlier work
SMILES,DC (bioproduct distribution coefficient) [1],Extract Bioproduct conc. (%) [1],Raffinate Bioproduct conc. (%) [1],Distribution coefficient DME [2],n-butanol content of saturated aqueous solution [3]
CCCC=O [Butanal],6.96,1.78%,0.26%,5.11,
"CCCC(C)=O [Example 2-Pentanone, 2-Pentanone]",7.95,1.81%,0.23%,5.82,
O=Cc1ccco1 [Furfural],3.35,1.56%,0.47%,3.79,
O=C1CCCO1 [Gamma Butyrolactone],3.69,1.60%,0.43%,3.14,
O=C(O)CCCC(=O)O [Glutaric Acid],0.27,0.44%,1.51%,1.88,
CCCC(=O)OC [Methyl Butyrate],53.8,2.00%,0.038%,20.73,
CCC(=O)O [Propionic Acid],1.01,1.00%,1.00%,2.27,
O=C(O)CCC(=O)O [Succinic Acid],0.11,0.158%,1.77%,1.01,
CCCCO [n-butanol],,,,,about 7.3 wt %
